In article PMC2990756, “Quantitative High-Throughput Screening Identifies 8-Hydroxyquinolines as Cell-Active Histone Demethylase Inhibitors” (PLoS ONE, 2010):

Assays:
JMJD2E [1] = target: T1, JMJD2E (Homo sapiens, UniProt B2RXH2); experiment: MALDI-TOF MS demethylation assay, JMJD2E; settings: Table S1; for MALDI-TOF Data: Span: span of the fitted curve; for MALDI-TOF Data: Span / IC50: 2 µM JMJD2E; for IC50: read-out: MALDI-TOF Data: IC50, unit not in table, ~ values are poorly fitted
T1 sequence (B2RXH2 1-337): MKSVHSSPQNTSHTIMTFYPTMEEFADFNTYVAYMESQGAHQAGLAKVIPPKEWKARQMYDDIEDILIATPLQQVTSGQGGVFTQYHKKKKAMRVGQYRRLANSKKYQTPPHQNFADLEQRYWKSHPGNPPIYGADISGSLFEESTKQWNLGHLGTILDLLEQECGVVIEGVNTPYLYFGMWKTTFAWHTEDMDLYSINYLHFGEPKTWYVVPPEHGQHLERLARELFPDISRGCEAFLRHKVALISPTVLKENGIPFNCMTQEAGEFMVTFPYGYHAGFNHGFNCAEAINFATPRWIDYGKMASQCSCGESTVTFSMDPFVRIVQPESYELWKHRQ
Protocol: Initially, JMJD2, Fe(II), ascorbate and inhibitors were pre-incubated for 15 min prior to the addition of peptide and 2OG. The reaction was incubated for 30 min before 1∶1 quenching with methanol followed by addition of four volumes of 20 mM triammonium citrate. […] The diluted assay mixture (1 µL) from JMJD2 and PHD2 assays were mixed with 1 µL of α-cyano-4-hydroxycinnamic acid and 1 µL of FIH assay mixture was mixed with 1 µL of sinapinic acid matrix, and assessed by matrix-assisted laser desorption/ionization-time of flight (MALDI-TOF).

JMJD2E [2] = target: T1, JMJD2E; experiment: JMJD2E FDH-coupled assay under low and high iron conditions (iron chelation profile); format: biochemical; set-up: The catalytic domain of human JMJD2E (residues 1–337); His6 (N); made in house; host or cells: E. coli; settings: Table S1; for IC50: unit not in table, from Figure 2
Protocol: The prioritized compounds were also evaluated in the screening assay using two different ferrous ion concentrations (termed high iron and low iron, respectively), in order to assess their propensity for iron chelation.
The ratio of IC50 values under high iron to low iron was calculated for each compound.

[3] = target: T2, formaldehyde dehydrogenase (FDH) (Pseudomonas putida, UniProt P46154); experiment: FDH coupling enzyme counterscreen; format: biochemical; settings: Table S1, FDH counterscreen; for IC50: unit not in table, from Figure 2, read-out: qHTS Data: jmjd2e fdh IC50
T2 construct: purchased Sigma-Aldrich
Description: Dimethylsulfoxide certified ACS grade (DMSO) was from Fisher, Inc. HEPES buffer was obtained from Gibco. […] Black solid-bottom 1,536-well assay plates were from Greiner Bio-One (Monroe, NC).

JMJD2E (KDM4E) = target: T3, JMJD2E (KDM4E) (Homo sapiens, UniProt B2RXH2); experiment: qHTS fluorescence FDH-coupled JMJD2E demethylase assay; format: biochemical; settings: Table S1; unit not in table, from Figure 2; read-out: qHTS Data: jmjd2e IC50
T3 construct: The catalytic domain of human JMJD2E (residues 1–337); His6 (N); made in house; host or cells: E. coli
T3 sequence (B2RXH2 1-337): T1 sequence (B2RXH2 1-337)

[4] = high iron, head says 20 µM FAS, read-out: qHTS Data: jmjd2e fas20um IC50
[5] = low iron 2.5 µM FAS, read-out: qHTS Data: jmjd2e fas2.5um IC50

T2 sequence (P46154 whole entry): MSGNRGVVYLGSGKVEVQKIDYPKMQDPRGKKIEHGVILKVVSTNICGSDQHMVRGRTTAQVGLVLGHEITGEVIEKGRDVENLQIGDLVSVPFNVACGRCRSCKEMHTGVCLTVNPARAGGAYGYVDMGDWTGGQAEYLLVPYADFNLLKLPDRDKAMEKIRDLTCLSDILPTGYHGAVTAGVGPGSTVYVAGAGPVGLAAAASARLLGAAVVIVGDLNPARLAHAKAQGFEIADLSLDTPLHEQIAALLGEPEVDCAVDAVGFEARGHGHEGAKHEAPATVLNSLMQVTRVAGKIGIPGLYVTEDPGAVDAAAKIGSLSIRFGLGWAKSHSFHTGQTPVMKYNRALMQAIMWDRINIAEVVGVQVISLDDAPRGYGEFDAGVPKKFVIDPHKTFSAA

| Compound | MALDI-TOF Data: Span (JMJD2E [1]) | IC50 (JMJD2E [1]) [µM] | IC50 (JMJD2E [2]; [4]) [µM] | IC50 (JMJD2E [2]; [5]) [µM] | qHTS Data: jmjd2e fdh CurveClass [3] | IC50 (JMJD2E (KDM4E)) [µM] | qHTS Data: jmjd2e fas20um CurveClass (JMJD2E [2]; high iron) | qHTS Data: jmjd2e fas2.5um Curve comment (JMJD2E [2]; low iron 2.5 µM FAS) | IC50 [3] [µM] | MALDI-TOF Data: Comments (JMJD2E [1]) |
| --- | --- | --- | --- | --- | --- | --- | --- | --- | --- | --- |
| Br.Oc1ccc(C2CNCCc3c2cc(O)c(O)c3Cl)cc1 (stereo not shown) [compound 50106351] | 93.35 | 8.4 | 7.94 | 6.31 | Inactive | 25.1 |  |  |  |  |
| O=c1nc(N/N=C/c2ccccn2)cn[nH]1 [compound 24822918] | 97.61 | ~7.05 | 15.8 | 7.08 | Inconclusive | 10 |  |  |  |  |
| CCOc1c(Cl)cc(CNc2ccc(N3CCCC3)cc2)cc1OC [compound 24795526] | ~ 11904 |  | 19.9 | 3.98 | Inactive | 8.91 | Poor quality curve |  |  |  |
| CCOc1cc(CNc2ccc(N3CCCCC3)cc2)cc(Br)c1OCC(=O)NC(C)(C)C [compound 22412645] | ~ 104.5 |  | 3.16 | 39.8 | Inactive | 3.16 |  | Inconclusive |  |  |
| Oc1ccc(NCc2ccccc2OCc2ccccc2F)cc1 [compound 17385881] | 3.087 |  | 8.91 | 8.91 | Poor quality curve | 5.01 |  |  | 14.1 |  |
| CC1(C)CCC2=C(O1)c1ccccc1C(=O)C2=O [compound 50106535] | 91.75 | 28.6 |  |  |  | 3.55 |  |  |  |  |
| COc1ccc(/C=C/C(=O)NC(=S)NNC(=O)c2cnccn2)cc1 [compound 26725781] | 94.6 | 3.5 | 8.91 | 10 | Inactive | 7.94 |  |  |  |  |
| NC(Cc1cc(O)c(O)cc1O)C(=O)O (stereo not shown) [compound 50106437] |  |  | 2.24 | 7.94 | Inactive | 12.6 |  |  |  | solubility problems |
| Nc1ccc2nc3c(=O)n(CCc4ccccc4)c(=O)[nH]c3nc2c1 [compound 26726384] | 51.81 | 141 | 14.1 | 7.08 | Inactive | 1.78 |  | Poor quality curve |  |  |
| C[C@@](Cc1ccc(O)c(O)c1)(NN)C(=O)O [compound 11113507] | 95.69 | 5.6 | 14.1 | 3.55 | Inactive | 3.55 |  |  |  |  |
| CCCCc1ccc(C(=O)O)nc1 [compound 11111188] | ~ 5848 |  | 1.58 | 3.55 | Inactive | 3.98 |  |  |  |  |
| COc1cccc(/C=N/NC(=O)CNC(=O)COc2cccc(C)c2)c1O [compound 26660958] | 89.52 | 10.2 |  | 4.47 | Inactive | 2.82 | Inconclusive |  |  |  |
| C(=N\Nc1nc(-c2ccccn2)nc2ccccc12)/c1ccccc1 [compound 26666061] |  |  | 10 | 22.4 | Inactive | 8.91 |  |  |  | solubility problems |
| C=CCn1c(SCC(=O)c2ccc(O)c(O)c2)nnc1-c1cccnc1 [compound 26671532] | 91.73 | 11.8 | 1.26 | 7.94 | Poor quality curve | 3.55 |  |  | 14.1 |  |
| O=c1c2ccccc2sn1-c1nccs1 [compound 24830882] | 82.19 | 10.2 | 3.98 | 7.94 | Inactive | 7.94 |  |  |  |  |
| CN(C)C1C(=O)C(C(N)=O)=C(O)[C@@]2(O)C(=O)C3=C(O)c4c(O)cccc4[C@@](C)(O)C3[C@H](O)C12 (stereo partly shown) [compound 50105558] | 94.16 | 54.8 | 8.91 | 14.1 | Poor quality curve | 2 |  |  | 3.55 |  |
| COc1cccc(/C=N/NC(=O)CNC(=O)CCc2ccccc2)c1O [compound 26660959] | 88.08 | 8.6 | 12.6 | 7.08 | Inconclusive | 3.98 |  |  | 39.8 |  |

| Compound | MALDI-TOF Data: Span (JMJD2E [1]) | IC50 (JMJD2E [1]) [µM] | IC50 (JMJD2E [2]; [4]) [µM] | IC50 (JMJD2E [2]; [5]) [µM] | qHTS Data: jmjd2e fdh CurveClass [3] | IC50 (JMJD2E (KDM4E)) [µM] | qHTS Data: jmjd2e fas20um CurveClass (JMJD2E [2]; high iron) | qHTS Data: jmjd2e fas2.5um Curve comment (JMJD2E [2]; low iron 2.5 µM FAS) | IC50 [3] [µM] | MALDI-TOF Data: Comments (JMJD2E [1]) |
| --- | --- | --- | --- | --- | --- | --- | --- | --- | --- | --- |
| CN1CCN(Cc2cc(COCc3ccccc3)c3cccnc3c2O)CC1 [compound 4248346] | 96.1 | 17.2 | 8.91 | 7.08 | Inactive | 8.91 |  |  |  |  |
| Cl.Nc1ccn([C@@H]2O[C@H](CO)[C@@H](O)[C@@H]2O)c(=O)n1 [compound 50106080] |  |  | 7.94 |  | Inactive | 0.89 |  | Inactive |  |  |
| O=C(O)c1cccnc1C(=O)O [compound 11113416] |  |  | 11.2 | 7.94 | Inactive | 1.78 |  |  |  |  |
| Oc1ccc(CN2CCCc3ccccc32)c2cccnc12 [compound 4249321] |  |  |  | 1.26 | Inactive | 8.91 | Inactive |  |  |  |
| CN(N=O)c1ccc(O)c(O)c1 [compound 50106719] |  |  |  | 7.94 | Poor quality curve | 10 | Inactive |  | 31.6 |  |
| Oc1ccccc1O [compound 50105556] |  |  | 14.1 | 10 | Inactive | 14.1 | Poor quality curve |  |  |  |
| CCOC(=O)C1CCN(Cc2ccc(O)c3ncccc23)CC1 [compound 850072] |  |  | 2 | 4.47 | Inconclusive | 8.91 |  |  |  |  |
| Cc1ccc(C)c(S(=O)(=O)N2CCN(Cc3ccc(O)c4ncccc34)CC2)c1 [compound 24838962] |  |  |  | 10 | Inconclusive | 3.55 | Inactive |  |  |  |
| O=[N+]([O-])c1ccc(O)c(/C=N/Nc2ccc(Cl)nn2)c1 [compound 17416266] |  |  |  | 5.62 | Inactive | 5.62 | Inactive |  |  |  |
| O=C1c2ccc(O)c(O)c2C(=O)c2c(O)ccc(O)c21 [compound 26749241] |  |  | 15.8 | 2.51 | Inactive | 3.55 |  |  |  |  |
| CC1=CC(=O)c2c(O)cccc2C1=O [compound 26747815] |  |  | 12.6 | 2.24 | Poor quality curve | 8.91 |  |  | 17.8 |  |
| CN(C)[C@H]1C(=O)C(C(=O)NCN[C@@H](CCCCN)C(=O)O)=C(O)[C@]2(O)C(=O)C3=C(O)c4c(O)cccc4[C@@](C)(O)[C@H]3C[C@@H]12 [compound 11112463] |  |  | 15.8 | 14.1 | Inactive | 8.91 |  |  |  |  |
| O=c1c(O)c(-c2cc(O)c(O)c(O)c2)oc2cc(O)cc(O)c12 [compound 11111488] | 95.03 |  |  |  | Inactive |  | Poor quality curve |  |  |  |
| COc1ccc(-c2cc(=O)n(CCC#N)[nH]2)cc1 [compound 17508964] |  |  | 12.6 |  | Inactive | 1.78 |  | Inactive |  |  |
| C[C@@](N)(Cc1ccc(O)c(O)c1)C(=O)O [compound 11112415] |  |  | 2 | 4.47 | Inactive | 4.47 |  |  |  |  |
| C[C@@H]1Cc2c(O)c(O)cc(O)c2C(=O)O1 [compound 26657786] |  |  |  | 3.55 | Inactive | 2 | Inactive |  |  |  |
| CC(C)c1ccccc1NC(=O)CNCCc1ccc(C(F)(F)F)cc1.O=C(O)C(=O)O [compound 26661422] |  |  |  | 28.2 | Inactive | 3.16 | Inactive |  |  |  |
